Test results from PMC10562414, “GLP-1R signaling neighborhoods associate with the susceptibility to adverse drug reactions of incretin mimetics” (Nature Communications, 2023).

System: HEK293 cells without GLP-1R (phosphoproteome)
Assay: Phosphoproteomics, untransfected / mock-transfected control cells, 30 min
Assay type: cell-based, human
Details: mock transfection, 1 μM, vs vehicle
Protocol: P values were calculated by a two-sided unpaired t-test.
HEK293 cells (350,000 cells/mL) were transfected in suspension using 3 μg of linear PEI (MW 25,000) per 1 μg of plasmid DNA and seeded onto poly-D-lysine-coated 60 mm dishes at a density of 1,750,000 cells per dish. After a 24-h incubation, cells were washed twice with PBS and placed in starvation media (DMEM with penicillin/streptomycin). After a 48-h incubation, cells were washed twice with HBSS and maintained in the same buffer. […] Cell extracts were prepared as previously described[64]–[66]. In short, 200 μL of the lysis buffer preheated at 95 °C (4% sodium dodecyl sulfate in 50 mM Tris adjusted to pH 8.5) was added to the cells. The samples were then denatured at 95 °C for 10 min, placed on ice and then sonicated using a probe sonicator (3 sec on, 3 sec off pulse, 1 min, 30% amplitude) (Branson). Lysate protein concentration was determined using the Pierce bicinchoninic acid assay kit (Thermo Fisher Scientific) according to the manufacturer’s instructions. The lysates were reduced using 5 mM dithiothreitol for 1 h at room temperature and alkylated using 15 mM iodoacetamide for 1 h at room temperature in the dark. Proteins were precipitated and digested on beads using MagReSyn Amine magnetic beads (ReSyn Biosciences) according to the manufacturer’s instructions. Protein digestion was conducted overnight at 37 °C with lysyl endopeptidase (LysC, Wako) (1:150 LysC/protein, w/w) and trypsin (1:300 trypsin/protein, w/w). 20% TFA, 2 M glycolic acid in 80% ACN were added to the samples at a 1:1 ratio for phosphopeptide enrichment using MagReSyn TiO2 magnetic beads (ReSyn Biosciences) according to the manufacturer’s instructions. The enriched phosphopeptides were dried overnight in a SpeedVac, resuspended into 5% formic acid (FA), desalted using StageTip (Thermo Fisher Scientific) according to the manufacturer’s instructions and dried in a SpeedVac. The experiment was performed in biological triplicates.
All parameters and settings regarding the acquisition of the proteomics data can be found in Supplementary Data 11, 12. For data acquisition, the instrument was set to peptide mode, with a trapping pressure set as low (2mTorr). An EASY-Spray Source (Thermo Fisher Scientific) was used and the column temperature was maintained with the integrated, temperature-controlled heater at 55 °C throughout the experiment. For the data presented in Fig. 5d, the column was heated at 50 °C following the manufacturer’s instructions (IonOpticks).
Acquired raw files were converted to mzML format by MSConvert (version 3.0.21258)[67] applying peak picking of the mass spectra with the vendor-provided algorithm (Thermo Fisher Scientific). The mzML files were analyzed using the FragPipe GUI v18 for both library and DIA search. […] Trypsin with up to 2 missed cleavages was set as digestion enzyme, oxidation of methionine, acetylation of the N-terminus and phosphorylation on serine, threonine and tyrosine (maximal occurrence was set to three) were set as variable modifications. Carbamidomethylation of cysteine residues was set as a fixed modification. Peptide length was restricted to 7 to 50 amino acids, and 500 to 5000 Da. […] DIA files were analyzed by DIA-NN 1.8.1[71], [72] using the previously generated library and monitor-command mode. Peptide quantification was performed based on the fragment elution profiles from the MS2 level (area under the curve). […]

In the case of N#Cc1ccc(COc2cccc(C3CCN(Cc4nc5ccc(C(=O)O)cc5n4C[C@@H]4CCO4)CC3)n2)c(F)c1 [Danuglipron], the “log2.foldchange, EIF3J S11” value (p 0.0145494, n = 3) is reported as -0.5603, the “log2.foldchange, VPS51 S18 (peptide ...EAPER)” value (p 0.168261, n = 3) is reported as -0.2294 and the “log2.foldchange, VPS51 S18 (peptide ...EAPERR)” value (p 0.181448, n = 3) is reported as 0.6501. For the same compound, the “log2.foldchange, VPS51 S10” value (p 0.364227, n = 3) was 0.2093 and the “log2.foldchange, PABPN1 S19” value (p 0.447985, n = 3) was 0.07218.
